Results on 4 compounds are retold here after patent US4713374A, “Ganglioside derivatives” (priority 1984, dated 1987).

The test system of data set [1] is (Na^+, K^+) ATPase of the neuronal membrane. The data set can be described thus: (Na+,K+)ATPase activity of the neuronal membrane (rat brain P2 fraction). The following applies: concentration 50 (50 nM), incubation with neuronal membranes 37° C. two hours; controls 100; 120 min. It counts as biochemical. The method, then:
a. Preparation of the raw mitochondrial fraction of rat brain (Fraction P2):
The procedure used in the preparation of P2 fraction was taken from Morgan e coll., Biochem. Biophys. Acta 241, 37 (1971). (The various operations were carried out at 0° to 4° C.; the xg values are average centrifugal forces).
Adult male Sprague Dawley rats (supplied by Charles River) (body weight 150-175 g) were decapitated and their brains were immediately removed and washed in an ice cold isotonic solution. After excision of the cerebellum, the brains were homogenized by effecting 12 up and down movements in a motor-driven glass and Telfon homogenizer (declared radial clearance 0.25 mm; 800 r.p.m.) using 4 vol. of homogenizing solution (0.32M saccharose containing 1 mM potassium phosphate buffer and […] of disodium EDTA, pH 7.27). The homogenized substance, filtered through four layers of fine gauze, was centrifuged at 1000 r.p.m. for 15 minutes. The resulting pellet was washed with the same initial volume of homogenizing solution and centrifuged as described above. The gathered supernatants were centrifuged at 17,500 r.p.m. for 25 minutes (these conditions of gravitational centrifugal force were used to obtain the maximum enrichment of nervous terminations in the fraction) and the pellet was washed four times in 9 volumes (each time) of homogenizing solution and centrifuged (17,500 r.p.m. for 25 minutes).
The final pellet, known as "P2 fraction" contains as its principal component, whole mitochondria and nervous terminations. The final pellet was homogeneously resuspended with a suitable volume of homogenizing solution with a glass and Teflon homogenizer, and used immediately for the test. […]
ATPase activity was measured by spectrophotometry according to Wallick and coll. […] The (Na^+, K^+)ATPase activity is determined by the difference between the total ATPase activity and the dependent ATPase Mg^2+ activity measured in the presence of 3×10^-5 M of Ouabain. […] The ATPase activity was expressed as International Unit (I.U.) (μmoles hydrolized ATP/mg protein/min). […]

The test system of a further data set is PC12 cells. The data set is described as follows: Neurite sprouting in PC12 cells. The following applies: 10^-6 M, serum-free vehicle with 50 ng/ml NGF, third day; controls 21.5. The format is cell-based.
Details of data set [2]: species or system Swiss mice. The following applies: mouse, in vivo, iv. The method, then:
Labelled ganglioside is prepared as described by Suzuki et al. [J. Lipid Res. 13, 687-690 (1972)] and modified by Ghidoni et al. [Ital. J. Biochem. 23, 320-328 (1974)]. The ethyl and isopropyl esters are prepared by esterification of this labelled ganglioside. The specific radioactivity is measured both of the ganglioside and esters.
Swiss mice obtained from Charles River (Calco), weighing about 20-25 g were treated by intravenous route with 10 μC of the products. 2-4-8-12-16 hours after administration, the animals were sacrificed by decapitation and their blood was gathered in heparinized flasks. The nonvolatile radioactivity was determined on blood samples by means of a Packard TRICARB scintillator and then identified with reference to ^3 H ganglioside and to the esters by TLC.

Method for PC12 cells: The cells are then washed three times in a serum-free vehicle. […] This effect is evaluated by counting the number of cells with neurites at the third day.

For `CCCCCCCCCCCCC/C=C/[C@@H](O)[C@H](CO[C@@H]1O[C@H](CO)[C@@H](O[C@@H]2O[C@H](CO)[C@H](O[C@@H]3O[C@H](CO)[C@H](O)[C@H](O[C@@H]4O[C@H](CO)[C@H](O)[C@H](O)[C@H]4O)[C@H]3NC(C)=O)[C@H](O[C@]3(C(=O)O)C[C@H](O)[C@@H](NC(C)=O)[C@H]([C@H](O)[C@H](O)CO)O3)[C@H]2O)[C@H](O)[C@H]1O)NC(=O)CCCCCCCCCCCCCCCCC` [Monosialoganglioside GM1, ganglioside GM1, reference compound], the “% increase in (Na^+, K^+) ATPase activity” value (from here on “% increase”) in data set [1] was 133%. Moreover, the “% of the no. of cells with neurites at 3rd day” value (“% of the no. of cells” for short) in the data set with PC12 cells is 34.8%.

As for `CCCCCCCCCCCCC/C=C/[C@@H](O)[C@H](CO[C@@H]1O[C@H](CO)[C@@H](O[C@@H]2O[C@H](CO)[C@H](O[C@@H]3O[C@H](CO)[C@H](O)[C@H](O[C@@H]4O[C@H](CO)[C@H](O)[C@H](O)[C@H]4O)[C@H]3NC(C)=O)[C@H](O[C@]3(C(=O)O)C[C@H](O)[C@@H](NC(C)=O)[C@H]([C@H](O)[C@H](O)CO)O3)[C@H]2O)[C@H](O)[C@H]1O)NC(=O)CCCCCCCCCCCCCCCCC` [tritiated ganglioside], the “t/2 of first phase of blood kinetic curve” value in data set [2] is “about three”.

In the case of `CCCCCCCCCCCCC/C=C/[C@@H](O)[C@H](CO[C@@H]1O[C@H](CO)[C@@H](O[C@@H]2O[C@H](CO)[C@H](O[C@@H]3O[C@H](CO)[C@H](O)[C@H](O[C@@H]4O[C@H](CO)[C@H](O)[C@H](O)[C@H]4O)[C@H]3NC(C)=O)[C@H](O[C@]3(C(N)=O)C[C@H](O)[C@@H](NC(C)=O)[C@H]([C@H](O)[C@H](O)CO)O3)[C@H]2O)[C@H](O)[C@H]1O)NC(=O)CCCCCCCCCCCCCCCCC` [Amide of GM1, Amide of the ganglioside GM1], the “% increase” value in data set [1] is recorded as 128%. In the data set with PC12 cells, the “% of the no. of cells” value amounted to 33.3%. As to `CCCCCCCCCCCCC/C=C/[C@@H](O)[C@H](CO[C@@H]1O[C@H](CO)[C@@H](O[C@@H]2O[C@H](CO)[C@H](O[C@@H]3O[C@H](CO)[C@H](O)[C@H](O[C@@H]4O[C@H](CO)[C@H](O)[C@H](O)[C@H]4O)[C@H]3NC(C)=O)[C@H](O[C@]3(C(=O)OC)C[C@H](O)[C@@H](NC(C)=O)[C@H]([C@H](O)[C@H](O)CO)O3)[C@H]2O)[C@H](O)[C@H]1O)NC(=O)CCCCCCCCCCCCCCCCC` [Methylic ester of GM1, Methyl ester of the ganglioside GM1], the “% increase” value in data set [1] came out at 132%. Moreover, the “% of the no. of cells” value in the data set on PC12 cells came out at 35.7%.
